According to the supplement of paper PMC11208160:

Assay: recombinant UMI read abundance after kanamycin selection (control-corrected) (log10(CPM+1)); higher = more efficient recombination; extreme values may be limits of the assay; sequences stand for … in AGTGCAGAGAAAATCGGCCAGTTTTCTCTGCCTGCAGTCCGCATGCCGTGGGACCCCTTGGGTTCTAACCTGTTGCCTAGATTTATGCAGCGGACTGCCTTTCTCCCAAAGTGATAAACCGG…AGGTTGGTTTCACT; site = the 11-nt donor
Method in brief: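 The measure is log10(CPM+1) for recombinant UMIs. These were PCR-amplified across the donor–target junction and sequenced after Escherichia coli carrying a donor and donor-binding-loop pair library and a target plasmid with T7-inducible IS621 bridge recombinase was plated on IPTG (0.07 mM) plus kanamycin or unselected. CPM were averaged over two replicates and scaled by control-derived factors.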
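Further: IS621 bridge recombinase in Escherichia coli cells against a fixed T5 target plasmid.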

Sequence | recombinant UMI read abundance (log10)
TTTACACCATGGACCGGTTTTCCCGGTAATCCGTATTTGAC (site TCTACACCTGT) | 0
TTTACACCATGGACCGGTTTTCCCGGTAATCCGTATTTGAC (site TGTACACCTGT) | 0
TTTACACCATGGACCGGTTTTCCCGGTAATCCGTATTTGAC (site TTTACACCTGT) | 0
TTTACCCCATGGACCGGTTTTCCCGGTAATCCGTATTTGCT (site TTTACCCCTAG) | 0.0114
TTTACGGCATGGACCGGTTTTCCCGGTAATCCGTATTTGCT (site TTTACGGCTAG) | 0.234
TTTACGGCATGGACCGGTTTTCCCGGTAATCCGTATTTGCT (site TTTCCGGCTAG) | 0.00939
TTTACGGCATGGACCGGTTTTCCCGGTAATCCGTATTTGCT (site TTTGCGGCTAG) | 0.00519
TTTACGGCATGGACCGGTTTTCCCGGTAATCCGTATTTGCT (site TTTTCGGCTAG) | 0.0523
TTTAGAACATGGACCGGTTTTCCCGGTAATCCGTATTTGGC (site ATTAGAACTGC) | 0.0159
TTTAGAACATGGACCGGTTTTCCCGGTAATCCGTATTTGGC (site CTTAGAACTGC) | 0
TTTAGAACATGGACCGGTTTTCCCGGTAATCCGTATTTGGC (site GTTAGAACTGC) | 0
TTTAGAACATGGACCGGTTTTCCCGGTAATCCGTATTTGGC (site TTTAGAACTGC) | 0
TTTAGAGCATGGACCGGTTTTCCCGGTAATCCGTATTTGTT (site TTTAGAGCTAA) | 0.975
TTTAGCTCATGGACCGGTTTTCCCGGTAATCCGTATTTGTT (site TTTAGCTCTAA) | 0.0116
TTTCAAACATGGACCGGTTTTCCCGGTAATCCGTATTTGTG (site TTTCAAACTCA) | 0.0135
TTTCACCCATGGACCGGTTTTCCCGGTAATCCGTATTTGGG (site TTTCACCCTCC) | 0.00832

Sequence | recombinant UMI read abundance (log10)
TTTCACTCATGGACCGGTTTTCCCGGTAATCCGTATTTGGT (site TTTCACTCTAC) | 0.00742
TTTCCGACATGGACCGGTTTTCCCGGTAATCCGTATTTGTA (site TTTCCGACTTA) | 0.018
TTTCTACCATGGACCGGTTTTCCCGGTAATCCGTATTTGGG (site TTTCTACCTCC) | 0.00805
TTTCTAGCATGGACCGGTTTTCCCGGTAATCCGTATTTGTA (site TTTCTAGCTTA) | 0.542
TTTCTCTCATGGACCGGTTTTCCCGGTAATCCGTATTTGTA (site ATTCTCTCTTA) | 0.353
TTTCTCTCATGGACCGGTTTTCCCGGTAATCCGTATTTGTA (site CTTCTCTCTTA) | 0.301
TTTCTCTCATGGACCGGTTTTCCCGGTAATCCGTATTTGTA (site GTTCTCTCTTA) | 0.297
TTTCTCTCATGGACCGGTTTTCCCGGTAATCCGTATTTGTA (site TTTCTCTCTTA) | 0.571
TTTCTGACATGGACCGGTTTTCCCGGTAATCCGTATTTGCC (site TTTCTGACTGG) | 0
TTTGAGACATGGACCGGTTTTCCCGGTAATCCGTATTTGGA (site TTTGAGACTTC) | 0.832
TTTGCCGCATGGACCGGTTTTCCCGGTAATCCGTATTTGCT (site TTTGCAGCTAG) | 0.0102
TTTGCCGCATGGACCGGTTTTCCCGGTAATCCGTATTTGCT (site TTTGCCGCTAG) | 0.548
TTTGCCGCATGGACCGGTTTTCCCGGTAATCCGTATTTGCT (site TTTGCGGCTAG) | 0.00684
TTTGCCGCATGGACCGGTTTTCCCGGTAATCCGTATTTGCT (site TTTGCTGCTAG) | 0
TTTGGCGCATGGACCGGTTTTCCCGGTAATCCGTATTTGAG (site TTTGGCGCTCT) | 0.115
TTTGGGGCATGGACCGGTTTTCCCGGTAATCCGTATTTGAC (site TTTGGGGCTGT) | 1.57
